Among the data in US9115150B2, “Camptothecin compound containing stable 7-membered lactone ring, preparation method and use” (EAST CHINA NORMAL UNIVERSITY, priority 2012, dated 2015) are IC50 values, retold here.

Test [1] concerns A549 cells. The experiment in a line: Anti-tumor (cytotoxic) activity assay, SRB method, A549. The test is classed as cell-based. The note with it: Homo sapiens, 72 h at 37° C., read-out: growth inhibition activity on A549 cells, IC50. As for the experimental part:
(§1) All the cytotoxic activity assays of the compounds were conducted on corresponding tumor cell lines. There were 6000˜10000 tumor cells per 100 μL of culture medium, and they were placed in a 96-well plate (Falcon, Calif.). The tumor cells were divided into 3 parts, and treated with drugs having gradient concentrations. The tumor cells were cultivated for 72 h at 37° C., and assayed using SRB method. The concentration that 50% of the growth of the tumor cells growth was inhibited, i.e., IC50, was calculated from dosage-activity curves.

The test system of test [2] is HCT-116 cells. As to the kind of experiment: Anti-tumor (cytotoxic) activity assay, SRB method, HCT-116. The test is classed as cell-based. The note with it: Homo sapiens, HCT-116 tumor cells, 72 h at 37° C., read-out: growth inhibition activity on HCT-116 cells, IC50. As for the experimental part:
as §1

Regarding `CC[C@@]1(O)C(=O)OCc2c1cc1n(c2=O)Cc2cc3cc(O)ccc3nc2-1` [Compound 10-HCPT, 10-hydroxylcamptothecin, reference compound], the values for the IC50 in test [1] and in test [2] were 33.6 ± 17.8 nM and 31.2 ± 8.2 nM, respectively.
Taken in the same sequence, the figures for `CC[C@]1(O)c2cc3n(c(=O)c2COC(=O)[C@@H]1OC(C)=O)Cc1cc2cc4c(cc2nc1-3)OCO4` [Ysb-5] were 1.2 ± 0.7 nM and 2.1 ± 0.3 nM.
In the case of `CC[C@]1(O)c2cc3n(c(=O)c2COC(=O)[C@@H]1OC(C)=O)Cc1cc2ccccc2nc1-3` [Ysb-1, (20S,20aR)-20a-acetoxyhomocamptothecin], the IC50 in test [1] is 49.2 ± 34.6 nM; in test [2], 14.2 ± 6.1 nM.
The matching figures for `CCc1c2c(nc3ccc(O)cc13)-c1cc3c(c(=O)n1C2)COC(=O)[C@]3(O)CC` [SN-38, reference compound]: 30.4 ± 11.5 nM and 40.8 ± 5.8 nM.
The matching figures for `CC[C@]1(O)c2cc3n(c(=O)c2COC(=O)[C@@H]1OC(C)=O)Cc1cc2cc4c(cc2nc1-3)OCCO4` [Ysb-7]: 4.6 ± 2.9 nM and 4.9 ± 4.1 nM.
For `CC[C@]1(O)c2cc3n(c(=O)c2COC(=O)[C@@H]1O)Cc1cc2cc4c(cc2nc1-3)OCCO4` [Ysb-8], the IC50 in test [1] is 2.9 ± 1.3 nM; in test [2] it was 3.4 ± 1.2 nM.
Taken in the same sequence, the figures for `CCc1c2c(nc3ccc(O)cc13)-c1cc3c(c(=O)n1C2)COC(=O)[C@H](OC(C)=O)[C@]3(O)CC` [Ysb-9, (20S,20aR)-10-hydroxyl-7-ethyl-20a-acetoxy homocamptothecin] were 226 ± 15.8 nM and 133 ± 18.7 nM.
The matching figures for `CCc1c2c(nc3ccc(O)cc13)-c1cc3c(c(=O)n1C2)COC(=O)[C@H](O)[C@]3(O)CC` [Ysb-10, (20S,20aR)-10-hydroxyl-7-ethyl-20a-hydroxyl homocamptothecin]: 30.3 ± 18.4 nM and 366 ± 213 nM.
The matching figures for `CC[C@]1(O)c2cc3n(c(=O)c2COC(=O)[C@@H]1OC(C)=O)Cc1cc2cc(OC)ccc2nc1-3` [Ysb-3, (20S,20aR)-10-methoxy-20a-acetoxyhomocamptothecin]: 4.7 ± 1.1 nM and 4.4 ± 1 nM.
As to `CC[C@]1(O)c2cc3n(c(=O)c2COC(=O)[C@@H]1O)Cc1cc2cc(OC)ccc2nc1-3` [Ysb-4, (20S,20aR)-10-methoxy-20a-hydroxylhomocamptothecin], the IC50 in test [1] was found to be 4.8 ± 3.6 nM; in test [2], 10.6 ± 6.2 nM.
The matching figures for `CC[C@]1(O)c2cc3n(c(=O)c2COC(=O)[C@@H]1O)Cc1cc2ccccc2nc1-3` [Ysb-2, (20S,20aR)-20a-hydroxylhomocamptothecin]: 16.8 ± 4.2 nM and 49.3 ± 15 nM.
Taken in the same sequence, the figures for `CC[C@@]1(O)C(=O)OCc2c1cc1n(c2=O)Cc2cc3ccccc3nc2-1` [CPT, Camptothecin] were 33.8 ± 13.9 nM and 22.9 ± 12 nM.
`CC[C@]1(O)c2cc3n(c(=O)c2COC(=O)[C@@H]1O)Cc1cc2cc4c(cc2nc1-3)OCO4` [Ysb-6, (20S,20aR)-9,10-(1,3-dioxolane)-20a-hydroxylhomocamptothecin]: the concentration for half-maximal inhibition (IC50) was determined as 3.1 ± 1.6 nM in test [1] and 3.1 ± 0.7 nM in test [2].
